These results are taken from publication PMC10366214, “The anti-Alzheimer potential of novel spiroindolin-1,2-diazepine derivatives as targeted cholinesterase inhibitors with modified substituents” (Scientific Reports, 2023).

A word on the IC50: it is the concentration needed to halve the response being measured. A word on the inhibition: it is the share of the control response that was lost under treatment. The Ki is a measure of affinity in units of concentration, obtained from inhibition or displacement.

Entries after “also recorded” stand apart in the source; their conditions may differ. Like-named read-outs stand apart in the source and are kept apart here.

In data set [1] the target is T1, AChE (Homo sapiens, UniProt P22303). The following applies: cited from earlier work.
T1 sequence (P22303 32-614): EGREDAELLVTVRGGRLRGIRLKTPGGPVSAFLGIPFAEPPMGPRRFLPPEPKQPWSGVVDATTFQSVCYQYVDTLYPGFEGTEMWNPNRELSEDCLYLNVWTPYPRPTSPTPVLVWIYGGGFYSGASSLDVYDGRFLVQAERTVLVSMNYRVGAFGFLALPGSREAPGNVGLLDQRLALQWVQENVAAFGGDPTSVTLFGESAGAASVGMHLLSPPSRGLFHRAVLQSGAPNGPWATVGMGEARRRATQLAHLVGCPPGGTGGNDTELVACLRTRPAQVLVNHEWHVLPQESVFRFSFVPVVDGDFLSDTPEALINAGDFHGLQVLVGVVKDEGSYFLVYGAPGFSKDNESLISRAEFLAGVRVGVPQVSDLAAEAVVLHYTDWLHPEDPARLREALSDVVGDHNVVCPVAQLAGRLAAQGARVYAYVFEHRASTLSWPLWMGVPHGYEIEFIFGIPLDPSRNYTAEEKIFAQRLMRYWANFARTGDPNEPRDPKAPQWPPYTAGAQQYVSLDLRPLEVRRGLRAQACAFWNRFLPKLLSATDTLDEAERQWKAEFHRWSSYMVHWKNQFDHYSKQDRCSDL
In data set [2] the target is T2, BChE (Homo sapiens, UniProt P06276). To be noted: cited from earlier work.
T2 sequence (P06276 29-602): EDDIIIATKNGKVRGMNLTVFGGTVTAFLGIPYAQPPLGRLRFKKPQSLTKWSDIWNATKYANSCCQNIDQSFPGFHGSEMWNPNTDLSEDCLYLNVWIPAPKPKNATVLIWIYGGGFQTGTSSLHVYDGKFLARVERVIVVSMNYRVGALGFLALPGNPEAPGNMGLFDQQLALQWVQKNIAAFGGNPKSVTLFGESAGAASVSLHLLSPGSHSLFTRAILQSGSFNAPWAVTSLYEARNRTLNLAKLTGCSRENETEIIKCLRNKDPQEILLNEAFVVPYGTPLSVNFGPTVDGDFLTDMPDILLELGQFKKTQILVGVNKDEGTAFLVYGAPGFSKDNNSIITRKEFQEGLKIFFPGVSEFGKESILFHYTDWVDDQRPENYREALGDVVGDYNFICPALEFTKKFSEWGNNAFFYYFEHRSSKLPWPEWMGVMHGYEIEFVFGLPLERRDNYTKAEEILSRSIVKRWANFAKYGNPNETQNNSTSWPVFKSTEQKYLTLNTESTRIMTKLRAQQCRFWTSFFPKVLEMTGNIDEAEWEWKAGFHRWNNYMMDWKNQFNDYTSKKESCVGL
Data set [3] has as its target T1, AChE. Nature of the data set: biochemical. The following applies: for inhibition at 50 µM: read-out: AChE % inhibition at 50 µM. The procedure:
(§1) Cholinesterase inhibitory activities of all analogs were evaluated spectrometrically using the modified Ellman method as previously reported[40],[41]. […] The absorbance of each well was measured at 415 nm using a microplate reader. IC50 values and inhibition values were calculated with the software GraphPad Prism as the mean of three independent experiments and are expressed as mean ± SEM.

Data set [4] concerns the target T2, BChE. Put plainly: BChE inhibition, modified Ellman method. To be noted: for inhibition at 50 µM: read-out: BChE % inhibition at 50 µM. In kind it is biochemical. The procedure:
as §1
For orientation: Ellman's reagent forms a yellow product with free thiols.

The target in data set [5] is T1, AChE. Nature of the data set: Enzyme kinetic study of AChE inhibition (Lineweaver-Burk, Ellman's method). In kind it is biochemical. The procedure: As previously reported, the kinetic study of AChE was carried out at five different concentrations of compound 5l and acetylthiocholine substrate (0.1–1 mM) by Ellman's method.
Data set [6] relates to SH-SY5Y neuroblastoma cell line. Put plainly: MTT toxicity assay on SH-SY5Y. To be noted: 72 h exposure; tested concentrations up to 50 µM. In kind it is cell-based. The procedure:
SH-SY5Y cells were maintained in Dulbecco's modified Eagle medium with Ham's F12 medium (DMEM/F12) containing 15% fetal bovine serum100 units/ml penicillin and 100 µg/ml streptomycin. Cells were seeded into flasks containing supplemented medium and maintained at 37 °C in a humidified atmosphere of 5% CO2 and 95% air. Cell viability, virtually the mitochondrial activity of living cells, was measured by quantitative colorimetric assay with MTT, as described previously. MTT reagent, at a final concentration of 0.5 mg/ml, was added to each well at the end of the incubation period, and the plate was placed in a humidified incubator for an additional two h periods. Metabolically active cells convert the yellow MTT tetrazolium compound to a purple formazan product. Then, the insoluble formazan was dissolved with dimethylsulfoxide; colorimetric determination of MTT reduction was measured at 540 nm. Control cells treated media were taken as 100% viability.
On the technique in general: Tetrazolium dyes change colour on reduction, which living cells bring about.

[7] abbreviates: 50 µM, mean ± S.E of three to five independent experiments.
Setting [8] is: mean ± S.E of three to five independent experiments, read-out: AChE IC50.

With `O=C(CC1(O)C(=O)N(Cc2ccccc2)c2ccccc21)c1ccc(Br)cc1Br` (stereo not drawn) [compound C], the IC50 is 0.028 ± 0.003 µM on AChE [1] and 0.065 ± 0.008 µM on BChE [2].
`N#CC1=C(N)NNC(Nc2ccc(O)cc2)=C([N+](=O)[O-])C12C(=O)Nc1ccc([N+](=O)[O-])cc12` (stereo not drawn) [Compound 5l, 3-amino-7-((4-hydroxyphenyl)amino)-5',6-dinitro-2'-oxo-1,2-dihydrospiro[[1,2]diazepine-5,3'-indoline]-4-carbonitrile]: at AChE [3], the IC50 was found to be 3.98 ± 1.07 µM and the inhibition at 50 µM was 87.4 ± 5.93%. Also, on BChE [4], the “inhibition against BChE (in words)” value was “no significant inhibition; also recorded: inactive” and the inhibition at 50 µM was found to be 5.71 ± 2.82%. The “mode of AChE inhibition” value at AChE [5] (Lineweaver-Burk plot) is given as “mixed mode; also recorded: mix type inhibitor; also recorded: mix-type inhibition”. Also, the Ki on AChE [5] (five inhibitor concentrations (1, 4, 8, 12, 24 µM), acetylthiocholine 0.1-1 mM, read-out: inhibition constant Ki against AChE) turned out to be 0.044 µM. Besides, the “toxicity against SH-SY5Y (MTT cell viability)” value in data set [6] is listed as “no toxicity; also recorded: did not show neurotoxicity”.
Turning to `Cc1ccc(Cn2cc(COc3cccc(C4Nc5ccccc5NC5=C4C(=O)CC(C)(C)C5)c3)nn2)cc1` (stereo not drawn) [compound E], at AChE [1] (30 μM), the “AChE Inhibition % at 30 μM” value was 12.9%. The IC50 on BChE [2] was 0.2 ± 0.002 µM.
For the compound `COc1ccc(OC)c(NC2=C([N+](=O)[O-])C3(C(=O)Nc4c(Br)cc(Br)cc43)C(C#N)=C(N)NN2)c1` (stereo not drawn) [Compound 5p, 3-amino-5',7'-dibromo-7-((2,5-dimethoxyphenyl)amino)-6-nitro-2'-oxo-1,2-dihydrospiro[[1,2]diazepine-5,3'-indoline]-4-carbonitrile], the inhibition at 50 µM on AChE [3] (setting [7]) is 73.4 ± 4.21%; at BChE [4] (setting [7]), 59.3 ± 3.15%. Also, the half-maximal inhibitory concentration (IC50) is 11.3 ± 1.65 µM on AChE [3] (setting [8]) and 37.9 ± 4.85 µM on BChE [4] (mean ± S.E of three to five independent experiments, read-out: BChE IC50).
On to `COc1ccc(OC)c(NC2=C([N+](=O)[O-])C3(C(=O)Nc4ccc([N+](=O)[O-])cc43)C(C#N)=C(N)NN2)c1` (stereo not drawn) [Compound 5j, 3-amino-7-((2,5-dimethoxyphenyl)amino)-5',6-dinitro-2'-oxo-1,2-dihydrospiro[[1,2]diazepine-5,3'-indoline]-4-carbonitrile], for which, on AChE [3], the IC50 was 20.9 ± 2.96 µM and the inhibition at 50 µM was 61.7 ± 3.77%. Moreover, on BChE [4], the IC50 was 17.4 ± 3.29 µM and the inhibition at 50 µM was 58.4 ± 3.55%.
Turning to `Cc1ccc(NC2=C([N+](=O)[O-])C3(C(=O)Nc4c(Br)cc(Br)cc43)C(C#N)=C(N)NN2)cc1` (stereo not drawn) [Compound 5o, 3-amino-5',7'-dibromo-6-nitro-2'-oxo-7-(p-tolylamino)-1,2-dihydrospiro[[1,2]diazepine-5,3'-indoline]-4-carbonitrile], the inhibition at 50 µM was 37.6 ± 4.74% at AChE [3] (setting [7]) and 14.1 ± 3.7% on BChE [4] (setting [7]).
Take `Cc1ccc(NC2=C([N+](=O)[O-])C3(C(=O)Nc4ccc(Cl)cc43)C(C#N)=C(N)NN2)cc1` (stereo not drawn) [Compound 5a, 3-amino-5'-chloro-6-nitro-2'-oxo-7-(p-tolylamino)-1,2-dihydrospiro[[1,2]diazepine-5,3'-indoline]-4-carbonitrile]: the values for the inhibition at 50 µM at AChE [3] (setting [7]) and at BChE [4] (setting [7]) were 5.37 ± 3.11% and 18.1 ± 2.88%, respectively.
On to `N#CC1=C(N)NNC(Nc2cccc(O)c2)=C([N+](=O)[O-])C12C(=O)Nc1c(C(F)(F)F)cccc12` (stereo not drawn) [Compound 5u, 3-amino-7-((3-hydroxyphenyl)amino)-6-nitro-2'-oxo-7'-(trifluoromethyl)-1,2-dihydrospiro[[1,2]diazepine-5,3'-indoline]-4-carbonitrile], for which the inhibition at 50 µM on AChE [3] (setting [7]) was determined as 16.4 ± 0.53%; on BChE [4] (setting [7]) it was 10.4 ± 1.07%.
Consider `N#CC1=C(N)NNC(Nc2ccc(Cl)cc2)=C([N+](=O)[O-])C12C(=O)Nc1ccc(Cl)cc12` (stereo not drawn) [Compound 5e, 3-amino-5'-chloro-7-((4-chlorophenyl)amino)-6-nitro-2'-oxo-1,2-dihydrospiro[[1,2]diazepine-5,3'-indoline]-4-carbonitrile], for which, at AChE [3] (setting [7]), the inhibition at 50 µM was 13.4 ± 3.34%. For the same compound, the “BChE % inhibition at 50 µM” value at BChE [4] (setting [7]) was “Not active”.
In the case of `O=C1Nc2ccccc2/C1=C\c1cc[n+](Cc2ccccc2Cl)cc1` [compound B], the IC50 at AChE [1] was 0.00044 µM; at BChE [2], 1.37 µM. The “fold more potent than donepezil (AChE)” value at AChE [1] (versus donepezil as reference drug) was 32 fold.
For the compound `COc1ccc(NC2=C([N+](=O)[O-])C3(C(=O)Nc4c(C(F)(F)F)cccc43)C(C#N)=C(N)NN2)cc1` (stereo not drawn) [Compound 5s, 3-amino-7-((4-methoxyphenyl)amino)-6-nitro-2'-oxo-7'-(trifluoromethyl)-1,2-dihydrospiro[[1,2]diazepine-5,3'-indoline]-4-carbonitrile], the inhibition at 50 µM on AChE [3] (setting [7]) is 56 ± 4.39%; on BChE [4] (setting [7]), 13.4 ± 3.46%. In addition, at AChE [3] (setting [8]), the IC50 was 17.8 ± 2.79 µM.
In the case of `Cc1ccccc1NC1=C([N+](=O)[O-])C2(C(=O)Nc3c(C(F)(F)F)cccc32)C(C#N)=C(N)NN1` (stereo not drawn) [Compound 5t, 3-amino-6-nitro-2'-oxo-7-(o-tolylamino)-7'-(trifluoromethyl)-1,2-dihydrospiro[[1,2]diazepine-5,3'-indoline]-4-carbonitrile], the inhibition at 50 µM on AChE [3] (setting [7]) is 24.7 ± 1.94%; on BChE [4] (setting [7]), 7.31 ± 5.07%.
Regarding `Cc1ccccc1NC1=C([N+](=O)[O-])C2(C(=O)Nc3ccc([N+](=O)[O-])cc32)C(C#N)=C(N)NN1` (stereo not drawn) [Compound 5f, 3-amino-5',6-dinitro-2'-oxo-7-(o-tolylamino)-1,2-dihydrospiro[[1,2]diazepine-5,3'-indoline]-4-carbonitrile], on AChE [3], the IC50 turned out to be 22.4 ± 2.11 µM and the inhibition at 50 µM stood at 59.6 ± 6.75%. On BChE [4], the inhibition at 50 µM was determined as 23.3 ± 3.97%.
`COc1ccc(NC2=C([N+](=O)[O-])C3(C(=O)Nc4ccc([N+](=O)[O-])cc43)C(C#N)=C(N)NN2)cc1` (stereo not drawn) [Compound 5i, 3-amino-7-((4-methoxyphenyl)amino)-5',6-dinitro-2'-oxo-1,2-dihydrospiro[[1,2]diazepine-5,3'-indoline]-4-carbonitrile]: the inhibition at 50 µM on AChE [3] was 46.1 ± 3.38%; on BChE [4], 31.2 ± 3.65%.
As for `Cc1ccc(NC2=C([N+](=O)[O-])C3(C(=O)Nc4ccc([N+](=O)[O-])cc43)C(C#N)=C(N)NN2)cc1C` (stereo not drawn) [Compound 5h, 3-amino-7-((3,4-dimethylphenyl)amino)-5',6-dinitro-2'-oxo-1,2-dihydrospiro[[1,2]diazepine-5,3'-indoline]-4-carbonitrile], at AChE [3], the inhibition at 50 µM was 48.6 ± 2.7%. Moreover, the “BChE % inhibition at 50 µM” value at BChE [4] (setting [7]) was “Not active”.
At AChE [3], `Cc1ccc(NC2=C([N+](=O)[O-])C3(C(=O)Nc4ccc([N+](=O)[O-])cc43)C(C#N)=C(N)NN2)cc1` (stereo not drawn) [Compound 5g, 3-amino-5',6-dinitro-2'-oxo-7-(p-tolylamino)-1,2-dihydrospiro[[1,2]diazepine-5,3'-indoline]-4-carbonitrile] had an IC50 of 5.88 ± 0.84 µM. Moreover, the figures for the inhibition at 50 µM on AChE [3] and on BChE [4] were 66.3 ± 6.57% and 24.4 ± 2.96%, respectively.
